# Experimental data published in ChEMBL document CHEMBL4419163, “Assays for identifying compounds that modulate bitter taste” (2014).
# What was measured:
# Type in all cases: functional, cell-based
# [1] = biological target: T1, Taste receptor type 2 member 42 (Homo sapiens) (UniProt Q7RTR8); assay: Agonist activity at human TAS2R55 expressed in HEK293T cells co-expressing Galpha15 assessed as increase in intracellular calcium level at 20 mM by Calcium-3 dye based fluorescence assay relative to control
# T1 sequence (whole entry): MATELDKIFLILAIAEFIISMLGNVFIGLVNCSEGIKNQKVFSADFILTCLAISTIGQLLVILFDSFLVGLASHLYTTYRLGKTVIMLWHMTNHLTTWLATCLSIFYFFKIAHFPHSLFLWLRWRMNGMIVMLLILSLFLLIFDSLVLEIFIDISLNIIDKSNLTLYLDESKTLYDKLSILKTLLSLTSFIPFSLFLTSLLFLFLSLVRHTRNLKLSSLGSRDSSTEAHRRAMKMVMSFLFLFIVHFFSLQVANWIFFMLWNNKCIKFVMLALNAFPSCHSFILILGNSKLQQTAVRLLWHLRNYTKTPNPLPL
# [2] = biological target: T2, Taste receptor type 2 member 38 (Homo sapiens) (UniProt P59533); assay: Agonist activity at human TAS2R38 expressed in HEK293T cells co-expressing Galpha15 assessed as increase in intracellular calcium level at 20 mM by Calcium-3 dye based fluorescence assay relative to control
# T2 sequence (whole entry): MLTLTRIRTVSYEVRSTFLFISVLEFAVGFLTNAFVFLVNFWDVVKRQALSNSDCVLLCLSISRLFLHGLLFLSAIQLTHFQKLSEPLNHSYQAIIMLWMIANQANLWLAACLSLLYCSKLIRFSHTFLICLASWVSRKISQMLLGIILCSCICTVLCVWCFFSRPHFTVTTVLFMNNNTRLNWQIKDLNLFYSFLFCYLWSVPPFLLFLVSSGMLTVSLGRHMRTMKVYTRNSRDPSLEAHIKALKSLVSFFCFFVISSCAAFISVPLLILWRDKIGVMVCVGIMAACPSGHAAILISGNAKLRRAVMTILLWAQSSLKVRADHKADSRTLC
# [3] = biological target: T3, Taste receptor type 2 member 60 (Homo sapiens) (UniProt P59551); assay: Agonist activity at human TAS2R60 expressed in HEK293T cells co-expressing Galpha15 assessed as increase in intracellular calcium level at 20 mM by Calcium-3 dye based fluorescence assay relative to control
# T3 sequence (whole entry): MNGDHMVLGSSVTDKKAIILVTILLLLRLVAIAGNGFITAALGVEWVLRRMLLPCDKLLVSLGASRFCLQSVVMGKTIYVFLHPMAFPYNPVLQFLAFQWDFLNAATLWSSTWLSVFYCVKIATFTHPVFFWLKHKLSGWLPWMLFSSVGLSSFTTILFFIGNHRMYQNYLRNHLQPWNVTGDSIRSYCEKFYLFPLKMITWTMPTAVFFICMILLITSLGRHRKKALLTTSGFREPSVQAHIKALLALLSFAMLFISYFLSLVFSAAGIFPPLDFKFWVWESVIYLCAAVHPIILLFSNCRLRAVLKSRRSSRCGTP
# [4] = biological target: Taste receptor type 2 member 40 (Homo sapiens) (UniProt P59535); assay: Agonist activity at human TAS2R40 expressed in HEK293T cells co-expressing Galpha15 assessed as increase in intracellular calcium level at 20 mM by Calcium-3 dye based fluorescence assay relative to control
# Taste receptor type 2 member 40 (Homo sapiens), sequence (P59535 whole entry): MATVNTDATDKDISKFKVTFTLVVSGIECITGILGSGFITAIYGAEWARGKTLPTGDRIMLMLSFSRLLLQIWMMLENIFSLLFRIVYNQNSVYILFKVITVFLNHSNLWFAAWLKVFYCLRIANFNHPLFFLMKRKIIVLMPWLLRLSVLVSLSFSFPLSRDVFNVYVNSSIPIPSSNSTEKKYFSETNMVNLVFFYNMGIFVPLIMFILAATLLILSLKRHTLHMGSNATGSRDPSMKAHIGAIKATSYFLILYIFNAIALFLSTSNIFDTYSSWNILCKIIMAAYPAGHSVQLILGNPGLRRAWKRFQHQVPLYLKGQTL
# [5] = biological target: T4, Taste receptor type 2 member 46 (Homo sapiens) (UniProt P59540); assay: Agonist activity at human TAS2R46 expressed in HEK293T cells co-expressing Galpha15 assessed as increase in intracellular calcium level at 20 mM by Calcium-3 dye based fluorescence assay relative to control
# T4 sequence (whole entry): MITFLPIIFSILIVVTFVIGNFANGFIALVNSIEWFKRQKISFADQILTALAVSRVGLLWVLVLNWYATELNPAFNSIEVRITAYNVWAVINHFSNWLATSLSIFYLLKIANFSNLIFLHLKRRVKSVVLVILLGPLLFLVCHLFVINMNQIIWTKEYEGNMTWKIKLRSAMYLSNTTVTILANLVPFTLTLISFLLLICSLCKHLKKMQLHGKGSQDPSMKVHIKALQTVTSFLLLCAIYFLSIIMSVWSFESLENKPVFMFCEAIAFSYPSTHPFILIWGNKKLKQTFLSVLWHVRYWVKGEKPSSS
# [6] = biological target: T5, Taste receptor type 2 member 50 (Homo sapiens) (UniProt P59544); assay: Agonist activity at human TAS2R50 expressed in HEK293T cells co-expressing Galpha15 assessed as increase in intracellular calcium level at 20 mM by Calcium-3 dye based fluorescence assay relative to control
# T5 sequence (whole entry): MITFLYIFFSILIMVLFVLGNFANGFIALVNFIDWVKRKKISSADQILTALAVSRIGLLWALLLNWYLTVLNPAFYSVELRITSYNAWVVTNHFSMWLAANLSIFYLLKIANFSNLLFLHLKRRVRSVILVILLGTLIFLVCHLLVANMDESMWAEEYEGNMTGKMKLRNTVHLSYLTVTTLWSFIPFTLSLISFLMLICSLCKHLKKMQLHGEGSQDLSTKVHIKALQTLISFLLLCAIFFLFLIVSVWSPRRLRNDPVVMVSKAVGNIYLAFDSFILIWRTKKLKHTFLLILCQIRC
# [7] = biological target: T6, Taste receptor type 2 member 1 (Homo sapiens) (UniProt Q9NYW7); assay: Agonist activity at human TAS2R1 expressed in HEK293T cells co-expressing Galpha15 assessed as increase in intracellular calcium level at 20 mM by Calcium-3 dye based fluorescence assay relative to control
# T6 sequence (whole entry): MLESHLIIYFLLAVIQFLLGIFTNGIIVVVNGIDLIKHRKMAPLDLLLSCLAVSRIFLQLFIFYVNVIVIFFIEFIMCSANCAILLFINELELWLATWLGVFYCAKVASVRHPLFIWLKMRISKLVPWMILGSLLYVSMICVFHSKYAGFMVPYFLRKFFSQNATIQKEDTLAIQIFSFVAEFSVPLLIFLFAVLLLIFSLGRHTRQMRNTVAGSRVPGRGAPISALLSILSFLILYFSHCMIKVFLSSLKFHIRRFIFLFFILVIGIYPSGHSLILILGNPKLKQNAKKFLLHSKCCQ
# [8] = biological target: T7, Taste receptor type 2 member 14 (Homo sapiens) (UniProt Q9NYV8); assay: Agonist activity at human TAS2R14 expressed in HEK293T cells co-expressing Galpha15 assessed as increase in intracellular calcium level at 20 mM by Calcium-3 dye based fluorescence assay relative to control
# T7 sequence (whole entry): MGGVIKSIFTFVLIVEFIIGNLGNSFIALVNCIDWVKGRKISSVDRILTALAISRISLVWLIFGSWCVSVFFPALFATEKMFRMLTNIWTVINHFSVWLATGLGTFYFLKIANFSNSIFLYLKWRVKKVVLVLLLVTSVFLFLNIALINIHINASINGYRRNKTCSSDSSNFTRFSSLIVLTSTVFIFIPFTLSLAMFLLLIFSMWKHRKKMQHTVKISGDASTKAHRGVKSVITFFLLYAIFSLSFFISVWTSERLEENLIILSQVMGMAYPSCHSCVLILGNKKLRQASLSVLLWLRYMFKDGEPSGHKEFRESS
Activity [1],Activity [2],Activity [3],Activity [4],Activity [5],Activity [6],Activity [7],Activity [8],SMILES
< 40%,< 40%,> 40%,< 40%,< 40%,< 40%,< 40%,> 40%,[Cl-].[K+] [POTASSIUM CHLORIDE]
< 40%,< 40%,< 40%,< 40%,< 40%,< 40%,> 40%,> 40%,CC1=CC(=O)NS(=O)(=O)O1
< 40%,< 40%,> 40%,< 40%,> 40%,< 40%,< 40%,> 40%,CC(O)C(=O)[O-].[K+] (centres undefined)
